Assay results from patent publication US8106029B2, “Use of A2A adenosine receptor agonists” (Gilead Sciences, Inc., priority 2004, dated 2012).
Converted amounts (≈) assume the structure as drawn. Like-named read-outs stand apart in the source and are kept apart here. One block for each compound: values may come before it.

Columns and labels:
A2A-adenosine receptors [1] = settings: average of the 12 assays
[2] = Example 1: population PK after single IV bolus in healthy male subjects; format: in vivo; settings: human
Protocol: (§1) The purpose of this study was to investigate the pharmacokinetics (PK), pharmacodynamics (PD), and the maximum tolerated dose of regadenoson in healthy human subjects.
(§2) Thirty-six healthy, male subjects were included in the study. […] ECG, blood pressure (BP), and heart rate (HR) were recorded for up to 24 hours post-dose. Adverse events (AE) were monitored for 24 hours post dose and via telephone 7 days later. A population approach was utilized in applying a three-compartmental PK model to the plasma concentration-time and a Michaelis-Menten model to the time-course of heart rate. The potential influence of various covariates on PK and PD model parameters was investigated.

[3] = Example 2: PD model of average coronary peak flow velocity (APV), intracoronary Doppler flow wire; format: in vivo, human
Protocol: (§3) The purpose of this study was to investigate the pharmacokinetics (PK) and pharmacodynamics (PD) of regadenoson in subjects undergoing clinically indicated cardiac catheterization.
(§4) Thirty-six male and female subjects undergoing clinically indicated coronary angiography were studied. […] ECG, average coronary peak flow velocity (APV), measured using intracoronary Doppler flow wire, blood pressure (BP), and heart rate (HR) were continuously monitored for up to 3 hours post-dose. Occurrence of adverse events (AEs) was monitored for approximately 3 hours post dosing and via telephone approximately 14 days later. A population approach was utilized in applying PK and PD models to the plasma concentration, APV, and HR data. The potential influence of various covariates on PK and PD model parameters was investigated.

A2A-adenosine receptors [4] = biological target: T1, A2A-adenosine receptors (Rattus norvegicus, UniProt P30543); test: Membrane binding, displacement of [3H]-ZM241385, rat brain striatal membranes; settings: Rat striatum, mean ± SE, read-out: Membrane Binding, affinity [Ki]
T1 construct: rat brain striatal membranes; from tissue; host or cells: rat brain striatum membranes
T1 sequence (P30543 whole entry): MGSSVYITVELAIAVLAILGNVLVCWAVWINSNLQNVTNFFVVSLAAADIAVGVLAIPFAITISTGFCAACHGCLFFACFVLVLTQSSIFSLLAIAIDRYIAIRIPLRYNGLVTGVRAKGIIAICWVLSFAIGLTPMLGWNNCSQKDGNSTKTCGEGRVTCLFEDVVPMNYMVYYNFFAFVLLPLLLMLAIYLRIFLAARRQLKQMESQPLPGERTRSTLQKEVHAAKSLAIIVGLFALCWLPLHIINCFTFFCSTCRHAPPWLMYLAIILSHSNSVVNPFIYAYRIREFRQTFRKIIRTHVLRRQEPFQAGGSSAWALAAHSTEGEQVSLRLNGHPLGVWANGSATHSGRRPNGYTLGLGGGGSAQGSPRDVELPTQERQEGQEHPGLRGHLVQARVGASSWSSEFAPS

A2A-adenosine receptors [5] = biological target: T1, A2A-adenosine receptors; test: Membrane binding, displacement of [3H]-CG-S21680, rat brain striatal membranes; settings: Rat striatum, mean ± SE, read-out: Membrane Binding, affinity [Ki]
[6] = Example 1: tolerability / maximum tolerated dose in healthy male subjects; format: in vivo, human; settings: for MTD at 24 h: male, human, in vivo, intravenous
Protocol: as §1, §2

human platelets [7] = test: Platelet aggregation; format: cell-based; settings: mean ± SE, read-out: Platelet Aggregation, potency
human neutrophils = test: Superoxide anion production, human neutrophils; format: cell-based; settings: Neutrophil, mean ± SE, read-out: Superoxide anion Production, potency
Solubility in water = format: physicochemical
Protocol: Therefore, regadenoson can be dissolved and administered in water so long as the desired weight amount of regadenoson can be administered in an acceptable volume. For example, a preferred dose of about 400 micrograms can be administered in 8 mL of water.

[8] = Example 1: PD model (Michaelis-Menten) of heart rate time-course in healthy male subjects; format: in vivo, human
Protocol: as §1, §2

[9] = Example 2: population PK in subjects undergoing cardiac catheterization; format: in vivo; settings: both sexes, human, plasma
Protocol: as §3, §4

[10] = Example 2: PD model (Michaelis-Menten) of heart rate; format: in vivo, human; settings: catheterization subjects
Protocol: as §3, §4

human platelets [11] = test: Cell calcium mobilization, human platelets; format: cell-based; settings: Platelet, mean ± SE, read-out: Cell calcium Mobilization, potency

- values of EC50 lower than for regadenoson, on average (A2A-adenosine receptors [1]): 13 fold
Structure (SMILES): CCNC(=O)[C@H]1O[C@@H](n2cnc3c(N)nc(NCCc4ccc(CCC(=O)O)cc4)nc32)[C@H](O)[C@@H]1O [CGS 21680]

Structure (SMILES): CNC(=O)c1cnn(-c2nc(N)c3ncn([C@@H]4O[C@H](CO)[C@@H](O)[C@H]4O)c3n2)c1 [regadenoson, (1-{9-[(4S,2R,3R,5R)-3,4-dihydroxy-5-(hydroxymethyl)oxolan-2-yl]-6-aminopurin-2-yl}pyrazol-4-yl)-N-methylcarboxamide]
- Vd ([2]; plasma, healthy male subjects, IV bolus, read-out: volume of distribution): 83.3 L
- clearance ([2]; plasma, healthy male subjects, single IV bolus 0.1 to 30 μg/kg, three-compartmental model, read-out: population value of clearance (CL) (converted)): 677 mL/min
- renal clearance as share of the total clearance ([2]; male, in vivo, iv): 57%
- distribution rate constant from the plasma to the effect site ([3]; APV PD model): 4 min⁻¹
- EC50 ([3]; Homo sapiens, catheterization subjects, read-out: potency (concentration that causes half maximal effect) on APV): 0.0299 µg/mL (≈ 0.0766 µM)
- maximal increase in APV ([3]; model estimate, effect compartment): 105 cm/s
- Ki (A2A-adenosine receptors [4]): 0.318 ± 0.005 µM
- Ki (A2A-adenosine receptors [5]): 0.043 ± 0.003 µM
- adverse events, severity ([6]; healthy male subjects, IV bolus 0.1 to 30 μg/kg): mild to moderate
- MTD at 24 h ([6]; standing, dose-limiting syncope or near syncope, read-out: maximum tolerated dose, standing position): 0.01 mg/kg
- MTD at 24 h ([6]; supine, read-out: maximum tolerated dose, supine position): 0.02 mg/kg
- dose generally well tolerated, standing patients ([6]; standing): up to 10 μg/kg
- dose generally well tolerated, supine patients ([6]; supine): up to 20 μg/kg
- IC50 (human platelets [7]): 0.437 ± 0.044 µM
- IC50 (human neutrophils): 0.328 ± 0.032 µM
- solubility (Solubility in water): ~50 µg/mL (≈ 128 µM)
- EC50 ([8]; Homo sapiens, read-out: concentration causing half-maximal increase in HR (potency)): 0.0124 µg/mL (≈ 0.0318 µM)
- maximal increase in HR ([8]; healthy male subjects, model estimate): 76 bpm
- Vd ([9]; IV bolus, read-out: volume of distribution): 68.1 L
- clearance ([9]; single IV bolus 10 to 500 μg, three-compartment model): 498 mL/min
- EC50 ([10]; Homo sapiens, read-out: potency on HR): 0.0275 µg/mL (≈ 0.0704 µM)
- maximum increase in the HR ([10]; model estimate): 41 bpm
- IC50 (human platelets [11]): 0.108 ± 0.008 µM
